Test results from US8623851B2 (Mylan Specialty L.P., priority 2001, dated 2014).
Read-outs that look alike come from different tables or passages of the source.

How the values were obtained:
[1] = Decomposition kinetics (stability) of formoterol in aqueous solution; format: physicochemical
Text: In the embodiments herein, the compositions have a pH of about 2.0 to about 8.0. The particular pH of a given composition for long term storage provided herein may be determined empirically using standard stability assays well known to those of skill in the art (see, e.g., the Examples). […] In certain of the above embodiments, the compositions are formulated at a pH of about 4, 4.4 or 4.6 up to about 5.5, 5.7 or 6. In other embodiments, the pH is about 5.0.
In other of the above embodiments, the compositions further contain a buffer, including, but not limited to, citric acid/phosphate, acetate, barbital, borate, Britton-Robinson, cacodylate, citrate, collidine, formate, maleate, Mcilvaine, phosphate, Prideaux-Ward, succinate, citrate-phosphate-borate (Teorell-Stanhagen), veronal acetate, MES (2-(N-morpholino)ethanesulfonic acid), BIS-TRIS (bis(2-hydroxyethyl)imino-tris-(hydroxymethyl)methane), ADA (N-(2-acetamido)-2-iminodiacetic acid), ACES (N-(carbamoylmethyl)-2-aminoethanesulfonaic acid), PIPES (piperazine-N,N′-bis(2-ethanesulfonic acid)), MOPSO (3-(N-morpholino)-2-hydroxypropanesulfonic acid), BIS-TRIS PROPANE (1,3-bis(tris(hydroxy-methyl)methylamino)propane), BES (N,N-bis(2-hydroxyethyl)-2-amino-ethanesulfonaic acid), MOPS (3-(N-morpholino)propanesulfonic acid), TES (N-tris(hydroxymethyl)methyl-2-aminoethanesulfonic acid), HEPES (N-(2-hydroxyethyl)piperazine-N′-(2-eth-anesulfonic acid), DIPSO (3-(N,N-bis(2-hydroxyethyl)amino)-2-hydroxypropan-esulfonicacid), MOBS (4-(N-morpholino)butanesulfonic acid), TAPSO (3-(N-tris(hydroxymethyl)methyl-amino)-2-hydroxypropanesulfonic acid), TRIZMA® (tris(hydroxymethyl-aminomethane), HEPPSO(N-(2-hydroxyethyl)piperazine-N′-(2-hydroxy-propanesulfonic acid), POPSO (piperazine-N,N′-bis(2-hydroxypropane-sulfonic acid)), TEA (triethanolamine), EPPS (N-(2-hydroxyethyl)-piperazine-N′-(3-propanesulfonic acid), TRICINE (N-tris(hydroxy-methyl)methylglycine), GLY-GLY (glycylglycine), BICINE (N,N-bis(2-hydroxyethyl)glycine), HEPBS (N-(2-hydroxyethyl)piperazine-N′-(4-butanesulfonic acid)), TAPS(N-tris(hydroxymethyl)methyl-3-amino-propanesulfonic acid), AMPD (2-amino-2-methyl-1,3-propanediol), and/or any other buffers known to those of skill in the art. In one embodiment, the buffer is citric acid/phosphate buffer, acetate buffer, citrate buffer or phosphate buffer. In another embodiment, the buffer is a citrate buffer (citric acid/sodium citrate). […] Buffer concentrations for use herein include from about 0 or 0.01 mM to about 150 mM, or about 1 mM to about 20 mM. In one embodiment, the buffer concentration is about 5 mM. In another embodiment, the buffer concentration is about 1 mM to about 50 mM, or about 20 mM. […] The particular buffer and buffer concentration of a given composition for long term storage provided herein may be determined empirically using standard stability assays well known to those of skill in the art (see, e.g., the Examples).
Ionic strengths of the compositions provided herein are from about 0 to about 0.4, or from about 0.05 to about 0.16. […] The particular ionic strength of a given composition for long term storage provided herein may be determined empirically using standard stability assays well known to those of skill in the art (see, e.g., the Examples).

[2] = Estimated shelf-life of formoterol in the compositions (Arrhenius kinetics); format: physicochemical
[3] = system: patients with reversible obstructive respiratory diseases; details: cited from earlier work

SMILES: COc1ccc(CC(C)NCC(O)c2ccc(O)c(NC=O)c2)cc1 (racemic) [formoterol, 2-hydroxy-5-((1RS)-1-hydroxy-2-(((1RS)-2-(p-methoxyphenyl)-1-methylethyl)amino)ethyl)formanilide]
- pH at which decomposition is slowest ([1]; aqueous solution, 60° C., buffer concentration 5 mM, ionic strength 0.05): about 5.0
- rate constant (kobs) for decomposition ([1]; aqueous solution, 60° C., pH 3, buffer concentration 5 mM, ionic strength 0.05): approximately 0.62 day^−1
- rate constant (kobs) for decomposition ([1]; aqueous solution, 60° C., pH 4, buffer concentration 5 mM, ionic strength 0.05): ~0.11 day⁻¹
- rate constant (kobs) for decomposition ([1]; aqueous solution, 60° C., pH 5, buffer concentration 5 mM, ionic strength 0.05): ~0.044 day⁻¹
- rate constant (kobs) for decomposition ([1]; aqueous solution, 60° C., pH 7, buffer concentration 5 mM, ionic strength 0.05): ~0.55 day⁻¹
- effect of buffer concentration on rate constant of decomposition ([1]; low and approximately neutral pH conditions, buffer concentration 5 mM to 20 mM): increased the rate constant of decomposition significantly
- effect of buffer concentration on rate constant of decomposition ([1]; pH region of about 4.5 to about 5.5, buffer concentration 5 mM to 20 mM): no noticeable differences in rate constant were observed
- estimated shelf-life ([2]; 5° C.): about 6.2 years
- estimated shelf-life ([2]; 25° C.): about 7.5 months
- aqueous solubility (pH between about 5 and about 7, ambient temperature): approximately 2.2 mg/mL
- aqueous solubility (pH of about 3, ambient temperature): about 4.8 mg/mL
- aqueous solubility (pH of about 4, ambient temperature): approximately 3 mg/mL
- solubility in pure water (pure water (HPLC water), ambient temperature): approximately 2 mg/mL
- duration of bronchodilatory effect [3]: greater than 12 hours
- onset of bronchodilatory effect [3]: 1 to 3 min
